Experimental data taken from the supplement of paper PMC10307832.

How the values were obtained:
Assay in all cases: relative viability (nuclei count vs DMSO), 5 days (fraction); higher = more cells survive
[1] = compound: CNC(=O)c1ccccc1Sc1ccc2c(/C=C/c3ccccn3)n[nH]c2c1 [Axitinib] + Cc1nc(NC(=O)N2CCC[C@H]2C(N)=O)sc1-c1ccnc(C(C)(C)C(F)(F)F)c1 [Alpelisib] (partner 2 µM)
Summary of the method: (§1)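 Lung cancer cell lines in 1536-well plates were dosed by pin tool the day after seeding, either with one drug alone or with a fixed anchor-drug dose plus five library-drug doses (not always all listed) in √10 steps. After 5 days, cells were fixed and their nuclei stained in one step (final 0.05% Triton X-100, 1% formaldehyde, 1 ug/ml Hoechst), then counted on 4× images. Relative viability is the nuclei count in treated wells divided by that in vehicle wells. Values are medians of duplicate plates.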

[2] = compound: CC1=CC=C(C=C1)C(=O)CN2C3=C(CCCC3)SC2=N [Pifithrin_alpha] + Cc1nc(NC(=O)N2CCC[C@H]2C(N)=O)sc1-c1ccnc(C(C)(C)C(F)(F)F)c1 [Alpelisib] (partner 2 µM)
Summary of the method: as §1

[3] = compound: CNC(=O)c1ccccc1Sc1ccc2c(/C=C/c3ccccn3)n[nH]c2c1 [Axitinib] + C[C@@H](Oc1cc(-c2cnn(C3CCNCC3)c2)cnc1N)c1c(Cl)ccc(F)c1Cl [Crizotinib] (partner 1 µM)
Summary of the method: as §1

[4] = compound: Nc1nc(Nc2ccc3c(c2)CC[C@@H](N2CCCC2)CC3)nn1-c1cc2c(nn1)-c1ccccc1CCC2 [Bemcentinib] + Cc1nc(NC(=O)N2CCC[C@H]2C(N)=O)sc1-c1ccnc(C(C)(C)C(F)(F)F)c1 [Alpelisib] (partner 2 µM)
Summary of the method: as §1

| Cell Line | relative viability ([1]; first compound 0.005 µM) | relative viability ([1]; first compound 0.01581 µM) | relative viability ([1]; first compound 0.05 µM) | relative viability ([1]; first compound 0.1581 µM) | relative viability ([1]; first compound 0.5 µM) | relative viability ([2]; first compound 1 µM) | relative viability ([2]; first compound 3.162 µM) | relative viability ([2]; first compound 10 µM) | relative viability ([2]; first compound 31.62 µM) | relative viability ([2]; first compound 100 µM) | relative viability ([3]; first compound 0.005 µM) | relative viability ([3]; first compound 0.01581 µM) | relative viability ([3]; first compound 0.05 µM) | relative viability ([3]; first compound 0.1581 µM) | relative viability ([3]; first compound 0.5 µM) | relative viability ([4]; first compound 0.04 µM) | relative viability ([4]; first compound 0.1265 µM) | relative viability ([4]; first compound 0.4 µM) | relative viability ([4]; first compound 1.265 µM) | relative viability ([4]; first compound 4 µM) |
| --- | --- | --- | --- | --- | --- | --- | --- | --- | --- | --- | --- | --- | --- | --- | --- | --- | --- | --- | --- | --- |
| HCC-44 | 0.842 | 0.881 | 0.873 | 0.834 | 0.89 | 0.681 | 0.699 | 0.715 | 0.453 | 0.591 | 0.898 | 0.834 | 0.841 | 0.792 | 0.869 | 0.875 | 0.911 | 0.939 | 0.967 | 1.05 |
| HCC-78 | 0.34 | 0.328 | 0.3 | 0.322 | 0.366 | 0.295 | 0.337 | 0.352 | – | 0.296 | 0.345 | 0.35 | 0.301 | 0.338 | 0.375 | 0.246 | 0.322 | 0.336 | 0.39 | 0.33 |
| HCC-366 | 0.616 | 0.482 | 0.505 | 0.387 | 0.619 | 0.282 | 0.3 | 0.329 | – | 0.234 | 0.628 | 0.657 | 0.603 | 0.487 | 0.669 | 0.474 | 0.408 | 0.572 | 0.378 | 0.417 |
| HCC-827 | 0.955 | 0.923 | 0.991 | 0.978 | 1.08 | 0.878 | 1.03 | 0.919 | 0.626 | 0.823 | 0.882 | 0.905 | 0.914 | 0.886 | 0.943 | 0.999 | 1.02 | 0.909 | 0.957 | 0.982 |
| HOP-62 | 1.07 | 1.22 | 0.78 | 0.998 | 1.2 | 1.18 | 1.1 | 0.848 | 0.62 | 0.931 | 0.941 | 1.1 | 0.93 | 0.981 | 0.929 | 0.914 | 0.831 | – | 1.19 | 0.747 |
| IA-LM | 0.79 | 0.883 | 0.733 | 0.761 | 0.619 | 0.917 | 0.757 | 0.356 | 0.442 | 0.423 | 0.95 | 0.737 | 1.05 | 1.04 | 0.982 | 0.749 | 0.807 | 0.748 | 0.652 | 0.78 |
| LC-2-ad | 0.942 | 0.859 | 0.83 | 0.907 | 0.903 | 0.898 | 0.799 | 0.791 | 0.56 | 0.682 | 0.404 | 0.483 | 0.496 | 0.424 | 0.597 | 0.877 | 0.969 | 0.907 | 0.822 | 0.852 |
| LCLC-97TM1 | 0.252 | 0.285 | 0.237 | 0.205 | 0.247 | – | 0.226 | 0.224 | – | 0.236 | 0.433 | 0.524 | 0.265 | 0.377 | 0.314 | 0.313 | 0.226 | – | 0.289 | 0.265 |
| LCLC-103H | 0.987 | 0.922 | 0.845 | 0.621 | 0.999 | 0.971 | 0.992 | 1.1 | 0.931 | 0.939 | 1.11 | 1.13 | 1 | 1.1 | 1.06 | 0.957 | 0.941 | 1.05 | 1.06 | 1.16 |
| LK-2 | 1.02 | 0.853 | 0.838 | 0.902 | 0.828 | 1.06 | 1.03 | 1.02 | – | 1.56 | 0.235 | 0.264 | 0.252 | 0.219 | 0.216 | 1.1 | 1.22 | 1.27 | 1.15 | 1.31 |
| LOU-NH91 | 0.772 | 0.512 | 0.715 | 0.702 | 0.778 | 0.63 | 0.637 | 0.635 | 0.616 | 0.583 | 0.765 | 0.641 | 0.773 | 0.697 | 0.78 | 0.631 | 0.702 | 0.7 | 0.717 | 0.71 |
| LU99A | 0.492 | 0.498 | 0.533 | 0.515 | 0.522 | 0.503 | 0.576 | 0.543 | – | 0.646 | 0.552 | 0.541 | 0.628 | 0.525 | 0.648 | 0.453 | 0.584 | 0.591 | 0.542 | 0.569 |
| LXF-289 | 1.05 | 0.961 | 1.03 | 0.958 | 1.05 | 1.09 | 1.01 | 1.08 | 0.921 | 1.03 | 0.872 | 0.799 | 0.781 | 0.781 | 0.841 | 1.09 | 1.05 | 1.02 | 1.06 | 1.05 |
| NCI-H23 | 0.83 | 0.862 | 0.554 | 0.861 | 0.796 | 0.586 | 0.572 | 0.634 | 0.466 | 0.592 | 0.532 | 0.529 | 0.619 | 0.436 | 0.656 | 0.725 | 0.745 | 0.814 | 0.758 | 0.806 |
| NCI-H1395 | 1.22 | 1.02 | 1.21 | 1.07 | 1.18 | – | 1.06 | 1.13 | 0.55 | 0.958 | – | – | – | – | – | 1 | 1.26 | 1.12 | 1.03 | 1.29 |
| NCI-H1650 | – | – | – | – | – | – | – | – | – | – | 0.979 | 0.949 | 1.04 | 0.947 | 1.13 | – | – | – | – | – |
| NCI-H1793 | 0.667 | 0.701 | 0.722 | 0.73 | 0.676 | 0.752 | 0.68 | 0.839 | 0.73 | 0.538 | – | – | – | – | – | 0.684 | 0.927 | 0.691 | 0.742 | 0.66 |
